These results are taken from patent publication US9981975B2, “Pyrrolotriazine compounds as tam inhibitors” (Incyte Corporation, priority 2016, dated 2018).

What all share (type): biochemical
The target in one assay is phosphor-Axl (Homo sapiens (Human), UniProt P30530). The experiment in a line: TAM Enzymatic Assay (HTRF), Axl. The settings on record: recombinant autophosphorylated Axl, 60 min, room temperature. As to the method: Autophosphorylation of Axl was carried out by incubating the recombinant Axl protein (Life Technologies, PV4275) in buffer containing 50 mM Tris, pH7.5, 0.2 mg/ml Axl, 5 mM ATP, 20 mM MgCl2 and 2 mM DTT at room temperature for 1 hour.
phosphor-Axl, sequence (P30530 26-894): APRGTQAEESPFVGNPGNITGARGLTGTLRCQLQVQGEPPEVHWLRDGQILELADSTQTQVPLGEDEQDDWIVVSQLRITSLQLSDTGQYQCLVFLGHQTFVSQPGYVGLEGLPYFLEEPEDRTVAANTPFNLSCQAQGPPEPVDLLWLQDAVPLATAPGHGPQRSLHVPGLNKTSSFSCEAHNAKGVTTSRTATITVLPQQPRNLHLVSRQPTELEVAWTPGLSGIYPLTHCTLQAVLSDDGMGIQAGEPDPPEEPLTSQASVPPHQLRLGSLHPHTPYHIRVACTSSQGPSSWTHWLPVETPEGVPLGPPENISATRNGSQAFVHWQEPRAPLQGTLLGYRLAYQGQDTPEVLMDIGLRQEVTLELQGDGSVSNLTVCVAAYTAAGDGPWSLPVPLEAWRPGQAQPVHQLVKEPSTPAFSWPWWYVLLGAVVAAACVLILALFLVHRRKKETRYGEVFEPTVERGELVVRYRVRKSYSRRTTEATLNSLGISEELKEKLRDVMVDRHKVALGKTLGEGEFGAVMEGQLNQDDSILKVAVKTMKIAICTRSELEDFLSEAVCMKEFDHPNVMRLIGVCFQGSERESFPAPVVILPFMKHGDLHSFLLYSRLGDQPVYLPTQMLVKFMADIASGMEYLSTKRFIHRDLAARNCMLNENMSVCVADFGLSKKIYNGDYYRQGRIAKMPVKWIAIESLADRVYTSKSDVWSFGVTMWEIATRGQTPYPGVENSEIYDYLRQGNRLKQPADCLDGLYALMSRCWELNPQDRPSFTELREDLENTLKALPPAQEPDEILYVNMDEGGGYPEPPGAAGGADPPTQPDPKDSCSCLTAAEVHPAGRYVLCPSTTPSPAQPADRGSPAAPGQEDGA
(§1) The kinase assay buffer contained 50 mM HEPES, pH7.5, 10 mM MgCl2, 1 mM EGTA, 0.01% NP-40 and 2 mM DTT. 0.1 ul test compounds dissolved in DMSO were transferred from compound plates to white 384-well assay plates (Greiner […] plates). […] 4 ul enzyme solution (or assay buffer for the enzyme blank) was added to the appropriate wells in each plate, and then 4 ul/well substrate solution was added to initiate the reaction. The plate was protected from light and incubated at room temperature for 60 min. […] The plate was incubated for 1 h at room temperature, and HTRF (homogenous time resolved fluorescence) signal was measured on a PHERAstar FS plate reader (BMG labtech). Percentage of inhibition was calculated for each concentration and IC50 value was generated from curve fitting with GraphPad Prism software.

In another assay the target is c-Mer (Homo sapiens (Human), UniProt Q12866). The experiment in a line: TAM Enzymatic Assay (HTRF), Mer. The note with it: 60 min, room temperature. As to the method:
as §1

The next assay concerns the target Tyro3 (Homo sapiens (Human), UniProt Q06418). The experiment in a line: TAM Enzymatic Assay (HTRF), Tyro3. The note with it: Tyro3, 60 min, room temperature. As to the method: as §1
(In general: Time-resolved FRET reads energy transfer from a long-lived donor to a nearby acceptor.)

Each structure is given as a SMILES string.

c-Mer, sequence (Q12866 21-999): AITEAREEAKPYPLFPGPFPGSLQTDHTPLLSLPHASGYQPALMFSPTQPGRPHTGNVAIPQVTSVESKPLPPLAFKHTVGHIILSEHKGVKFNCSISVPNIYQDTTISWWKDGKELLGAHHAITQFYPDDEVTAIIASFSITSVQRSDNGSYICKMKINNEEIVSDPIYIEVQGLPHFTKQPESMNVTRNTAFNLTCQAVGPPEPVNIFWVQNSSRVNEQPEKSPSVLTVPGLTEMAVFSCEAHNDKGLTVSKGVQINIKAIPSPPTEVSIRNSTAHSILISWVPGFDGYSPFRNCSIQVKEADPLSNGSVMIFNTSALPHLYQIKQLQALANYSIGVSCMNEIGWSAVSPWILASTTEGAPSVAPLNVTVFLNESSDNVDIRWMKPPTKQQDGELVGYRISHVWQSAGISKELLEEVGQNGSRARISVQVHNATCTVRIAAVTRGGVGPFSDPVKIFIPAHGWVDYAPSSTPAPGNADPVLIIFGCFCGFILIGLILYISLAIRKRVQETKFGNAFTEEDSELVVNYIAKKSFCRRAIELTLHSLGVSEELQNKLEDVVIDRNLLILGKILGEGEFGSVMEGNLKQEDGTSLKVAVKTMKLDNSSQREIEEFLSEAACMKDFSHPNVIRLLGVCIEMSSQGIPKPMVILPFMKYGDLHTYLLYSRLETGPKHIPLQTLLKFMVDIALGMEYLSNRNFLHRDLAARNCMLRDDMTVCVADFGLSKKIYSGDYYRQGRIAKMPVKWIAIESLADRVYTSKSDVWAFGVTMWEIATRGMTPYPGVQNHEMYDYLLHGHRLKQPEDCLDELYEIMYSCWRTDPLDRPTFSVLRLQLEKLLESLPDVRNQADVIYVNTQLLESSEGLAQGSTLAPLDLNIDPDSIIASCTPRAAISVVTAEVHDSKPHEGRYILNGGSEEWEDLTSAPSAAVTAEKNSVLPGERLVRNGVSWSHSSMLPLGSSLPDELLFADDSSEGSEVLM
Tyro3, sequence (Q06418 41-890): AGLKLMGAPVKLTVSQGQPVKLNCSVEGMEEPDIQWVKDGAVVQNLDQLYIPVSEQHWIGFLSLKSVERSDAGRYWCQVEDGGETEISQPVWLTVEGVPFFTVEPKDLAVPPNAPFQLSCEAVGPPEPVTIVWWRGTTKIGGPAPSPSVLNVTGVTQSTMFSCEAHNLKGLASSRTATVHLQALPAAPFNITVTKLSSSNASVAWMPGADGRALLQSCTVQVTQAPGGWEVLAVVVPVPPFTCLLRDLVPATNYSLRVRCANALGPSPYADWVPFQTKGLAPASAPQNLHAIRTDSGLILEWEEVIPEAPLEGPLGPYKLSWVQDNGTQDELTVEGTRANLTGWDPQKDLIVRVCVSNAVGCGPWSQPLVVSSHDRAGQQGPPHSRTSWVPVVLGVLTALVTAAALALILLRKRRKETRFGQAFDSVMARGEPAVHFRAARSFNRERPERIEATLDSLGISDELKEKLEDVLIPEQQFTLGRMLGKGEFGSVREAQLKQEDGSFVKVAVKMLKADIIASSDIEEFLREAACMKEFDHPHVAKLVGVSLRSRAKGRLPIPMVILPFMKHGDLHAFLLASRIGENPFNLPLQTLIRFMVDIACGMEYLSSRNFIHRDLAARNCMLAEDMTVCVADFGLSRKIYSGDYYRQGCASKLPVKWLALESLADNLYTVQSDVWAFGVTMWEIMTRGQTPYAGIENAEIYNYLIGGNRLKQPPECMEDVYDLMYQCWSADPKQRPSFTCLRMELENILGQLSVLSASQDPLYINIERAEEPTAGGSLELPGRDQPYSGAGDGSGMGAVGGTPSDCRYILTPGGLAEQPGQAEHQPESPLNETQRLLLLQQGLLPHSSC

For `Nc1ncnn2c1c(-c1ccc(NC(=O)c3cccn(-c4ccccc4)c3=O)cc1F)cc2[C@H]1CC[C@@H](O)CC1` [Example 18, N-{4-[4-Amino-7-(cis-4-hydroxycyclohexyl)pyrrolo[2,1-f][1,2,4]triazin-5-yl]-3-fluorophenyl}-2-oxo-1-phenyl-1,2-dihydropyridine-3-carboxamide], the IC50 on phosphor-Axl and against c-Mer was no more than 5 nM each time. Consider `CCc1cc(-c2ccc(NC(=O)c3cccn(-c4ccccc4)c3=O)cc2F)c2c(N)ncnn12` [Example 12, N-[4-(4-Amino-7-ethylpyrrolo[2,1-f][1,2,4]triazin-5-yl)-3-fluorophenyl]-2-oxo-1-phenyl-1,2-dihydropyridine-3-carboxamide], for which the IC50 against c-Mer was no more than 5 nM; at Tyro3, greater than 100 nM.

In the case of `CN1CCC(c2cc(-c3ccc(NC(=O)c4cccn(-c5ccc(F)cc5)c4=O)cc3)c3c(N)ncnn23)CC1` [Example 21, N-{4-[4-Amino-7-(1-methylpiperidin-4-yl)pyrrolo[2,1-f][1,2,4]triazin-5-yl]phenyl}-1-(4-fluorophenyl)-2-oxo-1,2-dihydropyridine-3-carboxamide], the IC50 at c-Mer was no more than 5 nM. In the case of `Nc1ncnn2c(C3CCOCC3)cc(-c3ccc(NC(=O)c4cccn(-c5ccccc5)c4=O)cc3F)c12` [Example 15, N-{4-[4-Amino-7-(tetrahydro-2H-pyran-4-yl)pyrrolo[2,1-f][1,2,4]triazin-5-yl]-3-fluorophenyl}-2-oxo-1-phenyl-1,2-dihydropyridine-3-carboxamide], the IC50 at phosphor-Axl and on c-Mer was no more than 5 nM each time.

For `CC(C)C(=O)N1CCC(c2cc(-c3ccc(NC(=O)c4cn(C(C)C)c(=O)n(-c5cc(F)ccc5F)c4=O)cc3)c3c(N)ncnn23)CC1` [Example 76, N-(4-(4-Amino-7-(1-isobutyrylpiperidin-4-yl)pyrrolo[1,2-f][1,2,4]triazin-5-yl)phenyl)-3-(2,5-difluorophenyl)-1-isopropyl-2,4-dioxo-1,2,3,4-tetrahydropyrimidine-5-carboxamide], the IC50 on phosphor-Axl was no more than 5 nM; at Tyro3, greater than 100 nM.

For the molecule `Cc1c(-c2ccnn2C)cc(C(=O)Nc2ccc(-c3cc(C4CCN(C(=O)C(C)C)CC4)n4ncnc(N)c34)cc2)c(=O)n1-c1cccnc1` [Example 134, N-(4-(4-Amino-7-(1-isobutyrylpiperidin-4-yl)pyrrolo[2,1-f][1,2,4]triazin-5-yl)phenyl)-6-methyl-5-(1-methyl-1H-pyrazol-5-yl)-2-oxo-2H-[1,3′-bipyridine]-3-carboxamide], the IC50 was no more than 5 nM on phosphor-Axl and greater than 100 nM against Tyro3. In the same order, the values of `Cc1cc(C(=O)N(C)C)ncc1-c1cc(-c2ccc(NC(=O)c3cn(C(C)C)c(=O)n(-c4ccccc4)c3=O)cc2)c2c(N)ncnn12` [Example 85, N-(4-(4-amino-7-(6-(dimethylcarbamoyl)-4-methylpyridin-3-yl)pyrrolo[1,2-f][1,2,4]triazin-5-yl)phenyl)-1-isopropyl-2,4-dioxo-3-phenyl-1,2,3,4-tetrahydropyrimidine-5-carboxamide] are no more than 5 nM and greater than 100 nM. Regarding `Cc1c(N2CCOCC2)cc(C(=O)Nc2ccc(-c3cc(C4CCN(C(=O)C(C)C)CC4)n4ncnc(N)c34)cc2)c(=O)n1-c1ccccc1` [Example 110, N-{4-[4-Amino-7-(1-isobutyrylpiperidin-4-yl)pyrrolo[2,1-f][1,2,4]triazin-5-yl]phenyl}-6-methyl-5-morpholin-4-yl-2-oxo-1-phenyl-1,2-dihydropyridine-3-carboxamide], the IC50 on phosphor-Axl is no more than 5 nM; against Tyro3 it was greater than 100 nM. In the same order, the values of `Nc1ncnn2c(C3CCN(CCO)CC3)cc(-c3ccc(NC(=O)c4cc5c(n(-c6ccc(F)cc6)c4=O)CCCC5=O)cc3)c12` [Example 59, N-(4-{4-Amino-7-[1-(2-hydroxyethyl)piperidin-4-yl]pyrrolo[2,1-f][1,2,4]triazin-5-yl}phenyl)-1-(4-fluorophenyl)-2,5-dioxo-1,2,5,6,7,8-hexahydroquinoline-3-carboxamide] are no more than 5 nM and greater than 100 nM. For the molecule `CC(C)C(=O)N1CCC(c2cc(-c3ccc(NC(=O)c4ccc(-c5ccccn5)n(-c5ccccc5)c4=O)cc3)c3c(N)ncnn23)CC1` [Example 104, N-(4-(4-Amino-7-(1-isobutyrylpiperidin-4-yl)pyrrolo[2,1-f][1,2,4]triazin-5-yl)phenyl)-6-oxo-1-phenyl-1,6-dihydro-[2,2′-bipyridine]-5-carboxamide], the IC50 on phosphor-Axl and against c-Mer was no more than 5 nM throughout.

As for `Cc1c(Cl)cc(C(=O)Nc2ccc(-c3cc(C4CCN(C(=O)C(C)C)CC4)n4ncnc(N)c34)cc2)c(=O)n1-c1ccccn1` [Example 124, N-(4-(4-Amino-7-(1-isobutyrylpiperidin-4-yl)pyrrolo[2,1-f][1,2,4]triazin-5-yl)phenyl)-5-chloro-6-methyl-2-oxo-2H-[1,2′-bipyridine]-3-carboxamide], the IC50 on phosphor-Axl was no more than 5 nM; on Tyro3, greater than 100 nM.

In turn, `Nc1ncnn2c(C3CCN(CCO)CC3)cc(-c3ccc(NC(=O)c4cccn(-c5ccc(F)cc5)c4=O)cc3)c12` [Example 53, N-(4-{4-Amino-7-[1-(2-hydroxyethyl)piperidin-4-yl]pyrrolo[2,1-f][1,2,4]triazin-5-yl}phenyl)-1-(4-fluorophenyl)-2-oxo-1,2-dihydropyridine-3-carboxamide] gave an IC50 at c-Mer of no more than 5 nM. Regarding `CC(C)C(=O)N1CCC(c2cc(-c3ccc(NC(=O)c4cn(C(C)C)cc(-c5cncc(F)c5)c4=O)cc3)c3c(N)ncnn23)CC1` [Example 129, N-(4-(4-amino-7-(1-isobutyrylpiperidin-4-yl)pyrrolo[1,2-f][1,2,4]triazin-5-yl)phenyl)-5-(5-fluoropyridin-3-yl)-1-isopropyl-4-oxo-1,4-dihydropyridine-3-carboxamide], the figures for the IC50 on phosphor-Axl and at Tyro3 were no more than 5 nM and greater than 100 nM, respectively. Consider `CCN(C)C(=O)N1CCC(c2cc(-c3ccc(NC(=O)c4cn(C(C)C)c(=O)n(-c5ccccc5F)c4=O)cc3)c3c(N)ncnn23)CC1` [Example 69, N-(4-(4-Amino-7-(1-(ethyl(methyl)carbamoyl)piperidin-4-yl)pyrrolo[1,2-f][1,2,4]triazin-5-yl)phenyl)-3-(2-fluorophenyl)-1-isopropyl-2,4-dioxo-1,2,3,4-tetrahydropyrimidine-5-carboxamide], for which the results for the IC50 on phosphor-Axl and on Tyro3 were no more than 5 nM and greater than 100 nM, respectively. Consider `CCN(C)C(=O)N1CCC(c2cc(-c3ccc(NC(=O)c4cc5c(n(-c6ccc(F)cc6)c4=O)CCCC5=O)cc3)c3c(N)ncnn23)CC1` [Example 57, N-{4-[4-Amino-7-(1-{[ethyl(methyl)amino]carbonyl}piperidin-4-yl)pyrrolo[2,1-f][1,2,4]triazin-5-yl]phenyl}-1-(4-fluorophenyl)-2,5-dioxo-1,2,5,6,7,8-hexahydroquinoline-3-carboxamide], for which the values for the IC50 at phosphor-Axl and on Tyro3 were no more than 5 nM and greater than 100 nM, respectively. For the molecule `Cc1c(-c2cnn(C)c2)cc(C(=O)Nc2ccc(-c3cc(C4CCN(C(=O)C(C)C)CC4)n4ncnc(N)c34)cc2)c(=O)n1-c1ccccc1` [Example 107, N-{4-[4-Amino-7-(1-isobutyrylpiperidin-4-yl)pyrrolo[2,1-f][1,2,4]triazin-5-yl]phenyl}-6-methyl-5-(1-methyl-1H-pyrazol-4-yl)-2-oxo-1-phenyl-1,2-dihydropyridine-3-carboxamide], the values for the IC50 on phosphor-Axl and at Tyro3 were no more than 5 nM and greater than 100 nM, respectively.

Turning to `Nc1ncnn2c1c(-c1ccc(NC(=O)c3cccn(-c4ccccc4)c3=O)cc1)cc2[C@H]1CC[C@@H](O)CC1` [7 (cis isomer), N-{4-[4-Amino-7-(cis-4-hydroxycyclohexyl)pyrrolo[2,1-f][1,2,4]triazin-5-yl]phenyl}-2-oxo-1-phenyl-1,2-dihydropyridine-3-carboxamide], the IC50 against c-Mer was no more than 5 nM. As for `CC(C)C(=O)N1CCC(c2cc(-c3ccc(NC(=O)c4cn(C(C)C)c(=O)n(-c5cccc(C#N)c5)c4=O)cc3)c3c(N)ncnn23)CC1` [Example 91, N-(4-(4-Amino-7-(1-isobutyrylpiperidin-4-yl)pyrrolo[2,1-f][1,2,4]triazin-5-yl)phenyl)-3-(3-cyanophenyl)-1-isopropyl-2,4-dioxo-1,2,3,4-tetrahydropyrimidine-5-carboxamide], the IC50 was no more than 5 nM at phosphor-Axl and greater than 100 nM against Tyro3. Regarding `Nc1ncnn2c1c(-c1ccc(NC(=O)c3cccn(-c4ccccc4)c3=O)cc1)cc2[C@H]1CC[C@H](O)CC1` [7 (trans isomer), N-{4-[4-Amino-7-(trans-4-hydroxycyclohexyl)pyrrolo[2,1-f][1,2,4]triazin-5-yl]phenyl}-2-oxo-1-phenyl-1,2-dihydropyridine-3-carboxamide], the IC50 on c-Mer was no more than 5 nM.

Consider `CC(C)C(=O)N1CCC(c2cc(-c3ccc(NC(=O)c4cc5c(n(-c6cncc(F)c6)c4=O)CCC(C)(C)C5=O)cc3)c3c(N)ncnn23)CC1` [Example 115, N-(4-(4-Amino-7-(1-isobutyrylpiperidin-4-yl)pyrrolo[1,2-f][1,2,4]triazin-5-yl)phenyl)-1-(5-fluoropyridin-3-yl)-6,6-dimethyl-2,5-dioxo-1,2,5,6,7,8-hexahydroquinoline-3-carboxamide], for which the IC50 was no more than 5 nM on phosphor-Axl and greater than 100 nM against Tyro3.

One may read the IC50 as the concentration that gives 50% inhibition.
